Laboratory results as given in US12612424B2, “HPK1 inhibitors and uses thereof” (Regor Pharmaceuticals, Inc., priority 2019, dated 2026).
Read-outs that look alike come from different tables or passages of the source.

Key:
HPK1 = HPK1 (Homo sapiens, UniProt Q92918); experiment: HPK1 biochemical assay (ADP-GLO Kinase Assay)
In short: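 HPK1 (0.6 ng/μL final) activity was followed with MBP substrate and 10 μM ATP in Tris pH 7.5/MgCl2/BSA/DTT buffer, measured by ADP-Glo luminescence. Compounds were tested as 3-fold dilutions from 10 μM. IC50 came from a three-parameter logistic fit, with inhibition normalised to high/low controls.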

JAK3 = target: T1, JAK3 (Homo sapiens, UniProt P52333); experiment: JAK3 biochemical assay (ADP-GLO Kinase Assay); details: for JAKs/HPK1 IC50 Ratio, B* / JAKs/HPK1 IC50 Ratio, N*: ratio of JAK3 IC50 to HPK1 IC50; for JAKs/HPK1 IC50 Ratio, B*: first testing facility; for JAKs/HPK1 IC50 Ratio, N*: second testing facility
T1 construct: purchased Thermo fisher PV3855
T1 sequence (P52333 781-1124 limits assumed): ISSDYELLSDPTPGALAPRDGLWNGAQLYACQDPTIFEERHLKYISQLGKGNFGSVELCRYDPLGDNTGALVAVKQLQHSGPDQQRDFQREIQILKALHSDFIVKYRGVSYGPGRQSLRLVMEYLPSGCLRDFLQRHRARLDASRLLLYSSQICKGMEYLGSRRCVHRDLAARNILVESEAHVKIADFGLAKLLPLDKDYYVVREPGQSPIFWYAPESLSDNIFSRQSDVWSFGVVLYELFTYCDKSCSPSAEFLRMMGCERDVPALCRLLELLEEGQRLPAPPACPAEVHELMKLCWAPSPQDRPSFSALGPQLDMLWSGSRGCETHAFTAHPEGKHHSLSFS
In short: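 Luminescent ADP-Glo readout after a 60 min, 25 °C reaction of JAK3 (0.78 ng) on Poly(E4Y1) (0.2 μg/μL) at 4 μM ATP, Tris pH 7.5 buffer with MgCl2, BSA and DTT. Compounds tested 10 μM down to 0.508 nM in 3-fold steps; % inhibition normalised to DMSO and reference-compound controls, IC50 from three-parameter fit.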

[1] = B*: testing performed in a first testing facility, read-out: HPK1 IC50 (nM) Relative, B*
[2] = B*: testing performed in a first testing facility, read-out: JAK3 IC50 (nM) Relative, B*
[3] = N*: testing performed in a second testing facility, read-out: HPK1 IC50 (nM) Relative, N*
[4] = N*: testing performed in a second testing facility, read-out: JAK3 IC50 (nM) Relative, N*

Sequence of HPK1 (Q92918 whole entry): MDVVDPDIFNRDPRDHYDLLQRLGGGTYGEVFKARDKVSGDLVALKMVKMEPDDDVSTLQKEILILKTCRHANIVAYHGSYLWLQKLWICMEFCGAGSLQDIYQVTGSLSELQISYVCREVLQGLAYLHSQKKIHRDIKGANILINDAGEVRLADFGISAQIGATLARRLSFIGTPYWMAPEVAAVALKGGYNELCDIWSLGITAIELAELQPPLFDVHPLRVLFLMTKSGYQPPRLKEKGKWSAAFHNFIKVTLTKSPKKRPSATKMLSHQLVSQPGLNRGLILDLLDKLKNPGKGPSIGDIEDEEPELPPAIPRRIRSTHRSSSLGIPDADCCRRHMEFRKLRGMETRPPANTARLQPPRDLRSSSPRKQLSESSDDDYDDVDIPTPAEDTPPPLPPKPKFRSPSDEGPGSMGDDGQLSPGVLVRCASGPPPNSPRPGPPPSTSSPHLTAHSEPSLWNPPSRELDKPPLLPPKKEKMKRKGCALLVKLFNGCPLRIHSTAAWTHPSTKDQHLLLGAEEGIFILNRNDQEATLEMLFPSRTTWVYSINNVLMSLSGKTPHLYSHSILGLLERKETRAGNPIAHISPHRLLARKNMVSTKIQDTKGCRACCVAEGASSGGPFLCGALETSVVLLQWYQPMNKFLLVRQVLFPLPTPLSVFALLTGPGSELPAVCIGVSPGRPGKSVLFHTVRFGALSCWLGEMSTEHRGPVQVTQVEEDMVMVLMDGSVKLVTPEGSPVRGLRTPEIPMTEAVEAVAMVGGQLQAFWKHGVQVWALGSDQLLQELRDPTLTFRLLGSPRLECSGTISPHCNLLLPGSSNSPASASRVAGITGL

SMILES	IC50 (HPK1; [1]) [nM]	IC50 (JAK3; [2]) [nM]	JAKs/HPK1 IC50 Ratio, B* (JAK3)	IC50 (HPK1; [3]) [nM]	IC50 (JAK3; [4]) [nM]	JAKs/HPK1 IC50 Ratio, N* (JAK3)
COc1cc2c(cc1Nc1ncc(Cl)c(N3CC(C(=O)O)c4ccccc43)n1)CN(C)CC2 (single isomer, unassigned) [Example 96]	≤ 100	≤ 100	80			
COc1cc2c(cc1Nc1ncc(Cl)c(N3C[C@](C)(C(=O)O)c4ccccc43)n1)CN(C)CC2 (single isomer, unassigned) [Example 118]	≤ 100	> 1000	80			
COc1cc2c(cc1Nc1ncc(Cl)c(N3C[C@@](C)(C(=O)O)c4ccccc43)n1)CN(C)CC2 (single isomer, unassigned) [Example 119]	≤ 100	≤ 100	10			
COc1cc2c(cc1Nc1ncc(Cl)c(N3CC(C)(CC(=O)O)c4ccccc43)n1)CN(C)CC2 (single isomer, unassigned) [Example 147]	≤ 100	> 1000	132			
COc1cc2c(cc1Nc1ncc(Cl)c(N3CC(C)(CC(=O)O)c4ccccc43)n1)CN(C)CC2 (single isomer, unassigned) [Example 148]	≤ 100	≤ 100	209			
COc1cc2c(cc1Nc1ncc(Cl)c(N3CC(C)(CC(=O)O)c4ccc(F)cc43)n1)CN(C)CC2 (single isomer, unassigned) [Example 152]	≤ 100	100 to 500	253			
COc1cc2c(cc1Nc1ncc(Cl)c(N3CC(C)(CC(=O)O)c4ccc(F)cc43)n1)CN(C)CC2 (single isomer, unassigned) [Example 153]	≤ 100	> 1000	358			
COc1cc2c(cc1Nc1ncc(Cl)c(-n3ccc4ccccc43)n1)CN(C)CC2 [Example 2, N-(5-chloro-4-(1H-indol-1-yl)pyrimidin-2-yl)-6-methoxy-2-methyl-1,2,3,4-tetrahydroisoquinolin-7-amine]	≤ 100			≤ 100	> 1000	642
COc1cc2c(cc1Nc1ncc(Cl)c(N3CCc4ccccc43)n1)CN(C)CC2 [Example 4, N-(5-Chloro-4-(indolin-1-yl)pyrimidin-2-yl)-6-methoxy-2-methyl-1,2,3,4-tetrahydroisoquinolin-7-amine]	≤ 100	> 1000	337	≤ 100	100 to 500	601
COc1cc2c(cc1Nc1ncc(Cl)c(-n3cc(C(=O)N(C)C)c4ccccc43)n1)CN(C)CC2 [Example 8]	≤ 100			≤ 100	> 1000	>2457
COc1cc2c(cc1Nc1ncc(Cl)c(-n3cnc4ccccc43)n1)CN(C)CC2 [Example 9, N-(4-(1H-benzo[d]imidazol-1-yl)-5-chloropyrimidin-2-yl)-6-methoxy-2-methyl-1,2,3,4-tetrahydroisoquinolin-7-amine]	≤ 100			≤ 100	> 1000	571
COc1cc2c(cc1Nc1ncc(C(F)(F)F)c(-n3ccc4ccccc43)n1)CN(C)CC2 [Example 10, N-(4-(1H-indol-1-yl)-5-(trifluoromethyl)pyrimidin-2-yl)-6-methoxy-2-methyl-1,2,3,4-tetrahydroisoquinolin-7-amine]	≤ 100	> 1000	>298			
COc1cc2c(cc1Nc1ncc(Cl)c(N3CCc4cc(Cl)ccc43)n1)CN(C)CC2 [Example 13, N-(5-chloro-4-(5-chloroindolin-1-yl)pyrimidin-2-yl)-6-methoxy-2-methyl-1,2,3,4-tetrahydroisoquinolin-7-amine]	≤ 100	500 to 1000	62			
CN1CCc2ccc(Nc3ncc(Cl)c(N4CCc5ccccc54)n3)cc2C1 [Example 14, N-(5-Chloro-4-(indolin-1-yl)pyrimidin-2-yl)-2-methyl-1,2,3,4-tetrahydroisoquinolin-7-amine]	≤ 100	≤ 100	6	≤ 100	≤ 100	11
CN1CCc2cc(Cl)c(Nc3ncc(Cl)c(N4CCc5ccccc54)n3)cc2C1 [Example 15, 6-Chloro-N-(5-chloro-4-(indolin-1-yl)pyrimidin-2-yl)-2-methyl-1,2,3,4-tetrahydroisoquinolin-7-amine]	≤ 100	> 1000	174			
COc1cc2c(cc1Nc1ncc(Cl)c(N3CCc4ncccc43)n1)CN(C)CC2 [Example 16, N-(5-chloro-4-(2,3-dihydro-1H-pyrrolo[3,2-b]pyridin-1-yl)pyrimidin-2-yl)-6-methoxy-2-methyl-1,2,3,4-tetrahydroisoquinolin-7-amine]	≤ 100	> 1000				
COc1cc2c(cc1Nc1ncc(Cl)c(N3CCc4ccc(Cl)cc43)n1)CN(C)CC2 [Example 18, N-(5-chloro-4-(6-chloroindolin-1-yl)pyrimidin-2-yl)-6-methoxy-2-methyl-1,2,3,4-tetrahydroisoquinolin-7-amine]	≤ 100	> 1000	>446			
COc1cc2c(cc1Nc1ncc(Cl)c(N3CC(S(C)(=O)=O)c4ccccc43)n1)CN(C)CC2 (stereo not shown) [Example 81, N-(5-chloro-4-(3-(methylsulfonyl)indolin-1-yl)pyrimidin-2-yl)-6-methoxy-2-methyl-1,2,3,4-tetrahydroisoquinolin-7-amine]	≤ 100	500 to 1000	444			
COc1cc2c(cc1Nc1ncc(Cl)c(-n3cc(S(N)(=O)=O)c4ccccc43)n1)CN(C)CC2 [Example 83, 1-(5-Chloro-2-((6-methoxy-2-methyl-1,2,3,4-tetrahydroisoquinolin-7-yl)amino)pyrimidin-4-yl)-1H-indole-3-sulfonamide]	≤ 100	> 1000	232			
COc1cc2c(cc1Nc1ncc(Cl)c(N3CC4(CC4)c4ccccc43)n1)CN(C)CC2 [Example 84, N-(5-chloro-4-(spiro[cyclopropane-1,3′-indolin]-1′-yl)pyrimidin-2-yl)-6-methoxy-2-methyl-1,2,3,4-tetrahydroisoquinolin-7-amine]	≤ 100	100 to 500				
COc1cc2c(cc1Nc1ncc(Cl)c(N3CCc4cc(P(C)(C)=O)ccc43)n1)CN(C)CC2 [Example 86]	≤ 100	> 1000	67			
COc1cc2c(cc1Nc1ncc(Cl)c(N3CC(CO)c4ccccc43)n1)CN(C)CC2 (stereo not shown) [Example 87]	≤ 100	100 to 500				
COc1cc2c(cc1Nc1ncc(Cl)c(N3CC(P(C)(C)=O)c4ccccc43)n1)CN(C)CC2 (stereo not shown) [Example 88]	≤ 100	> 1000				
COc1cc2c(cc1Nc1ncc(Cl)c(N3CCc4cc(C(F)F)ccc43)n1)CN(C)CC2 [Example 90, N-(5-chloro-4-(5-(difluoromethyl)indolin-1-yl)pyrimidin-2-yl)-6-methoxy-2-methyl-1,2,3,4-tetrahydroisoquinolin-7-amine]	≤ 100	> 1000	413			
COc1cc2c(cc1Nc1ncc(Cl)c(N3CCc4ccc(C(F)F)cc43)n1)CN(C)CC2 [Example 91, N-(5-chloro-4-(6-(difluoromethyl)indolin-1-yl)pyrimidin-2-yl)-6-methoxy-2-methyl-1,2,3,4-tetrahydroisoquinolin-7-amine]	≤ 100	> 1000	>1500			
COc1cc2c(cc1Nc1ncc(Cl)c(N3CCc4c(C(F)F)cccc43)n1)CN(C)CC2 [Example 92, N-(5-chloro-4-(4-(difluoromethyl)indolin-1-yl)pyrimidin-2-yl)-6-methoxy-2-methyl-1,2,3,4-tetrahydroisoquinolin-7-amine]	≤ 100	> 1000	393			
COc1cc2c(cc1Nc1ncc(Cl)c(-n3cc(C4(O)COC4)c4ccccc43)n1)CN(C)CC2 [Example 93]	100 to 500	> 1000				
CNC(=O)C1CN(c2nc(Nc3cc4c(cc3OC)CCN(C)C4)ncc2Cl)c2ccccc21 (stereo not shown) [Example 97, 1-(5-Chloro-2-((6-methoxy-2-methyl-1,2,3,4-tetrahydroisoquinolin-7-yl)amino)pyrimidin-4-yl)-N-methylindoline-3-carboxamide]	≤ 100	> 1000	800			
COc1cc2c(cc1Nc1ncc(Cl)c(N3CC(C(=O)NS(C)(=O)=O)c4ccccc43)n1)CN(C)CC2 (stereo not shown) [Example 98]	≤ 100	> 1000	508			
COc1cc2c(cc1Nc1ncc(Cl)c(N3CC(C#N)c4ccccc43)n1)CN(C)CC2 (stereo not shown) [Example 99, 1-(5-Chloro-2-((6-methoxy-2-methyl-1,2,3,4-tetrahydroisoquinolin-7-yl)amino)pyrimidin-4-yl)indoline-3-carbonitrile]	≤ 100	≤ 100	100			
